Laboratory results from patent publication US11691949B2, “Quinoline sulfonamide compounds and their use as antibacterial agents” (OTAGO INNOVATION LIMITED, priority 2017, dated 2023).
≈ marks a conversion by molar mass, not a printed value. Counter-ions that a name gives are not always drawn. Like-named read-outs stand apart in the source and are kept apart here.

Experiments:
Format in all cases: cell-based
[1] = system: S. aureus ATCC 6538; test: MBC by Miles-Misra drop-plate method, S. aureus; conditions: Staphylococcus aureus
Description: (§1) Antibacterial susceptibility testing was performed in triplicate (biological) by measuring minimum inhibitory concentrations (MICs) by broth microdilution in 96-well flat bottom microtiter plates (ThermoFisher Scientific, New Zealand). S. uberis ATCC 19436, S. aureus ATCC 6538, or E. coli ATCC 10596 cells grown overnight were diluted to an OD600 of approximately 0.025, so that the final concentration of cells in the MIC assay was approximately 5×10^5 cfu/mL in media as follows: S. uberis; Todd Hewitt Broth (THB), S. aureus; Tryptic Soy Broth (TSB) and Cation Adjusted Muller Hinton Broth (CAMHB), and E. coli; Lysogeny Borth (LB) and CAMHB, before being dispensed into microtiter wells. As required additional sterile Zinc Sulphate (Heptahydrate) was supplemented into the media, so the final concentration was 50 μM. Test compounds were added to starting wells and two-fold serial dilutions were undertaken to generate a range of inhibitor concentrations at a final volume of 200 μl. Media and test compound-free (untreated) controls were included in each microtiter plate in triplicate. After 24 h incubation at 37° C. and 200 rpm, the OD600 of wells were read using a Varioskan Flash plate reader (ThermoFisher Scientific, New Zealand). The MIC was reported as the lowest concentration of the test compound for which no growth occurred, as determined by OD600 readings. The minimum bactericidal concentration (MBC) was determined using the Miles-Misra drop-plate method to measure the viability of cells in response to test compound challenge.

[2] = system: S. uberis ATCC 19436; test: MBC by Miles-Misra drop-plate method, S. uberis; conditions: Streptococcus uberis
Description: as §1

[3] = system: S. aureus ATCC 6538; test: MIC by broth microdilution, S. aureus; conditions: Staphylococcus aureus
How it was run: (§2)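 Overnight cultures diluted to ~5×10^5 cfu/mL final; S. aureus in TSB and CAMHB, E. coli in LB and CAMHB, zinc sulphate to 50 μM final as required; two-fold serial dilutions. MIC = lowest concentration with no growth by OD600 after 24 h, 37° C, 200 rpm. MBC by Miles-Misra drop-plate viability count.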

[4] = system: S. uberis ATCC 19436; test: MIC by broth microdilution, S. uberis; conditions: Streptococcus uberis
How it was run: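 The MIC against S. uberis ATCC 19436 was the lowest compound concentration showing no growth by OD600 after 24 h at 37° C. with 200 rpm shaking. Cultures grown overnight were adjusted to OD600 ~0.025 so wells held approximately 5×10^5 cfu/mL in THB. Two-fold dilution series were made at a final volume of 200 μl. Media and untreated controls were run in triplicate on each plate.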

[5] = system: E. coli ATCC 10536; test: MBC by Miles-Misra drop-plate method, E. coli; conditions: Escherichia coli
Description: as §1

[6] = system: E. coli ATCC 10596; test: MIC by broth microdilution, E. coli; conditions: Escherichia coli
How it was run: as §2

[7] = ATCC6538, No Zinc, read-out: S. aureus ATCC 6538 MBC
[8] = ATCC6538, Zinc (50 μM), read-out: S. aureus ATCC 6538 MBC
[9] = ATCC19436, No Zinc, read-out: S. uberis ATCC 19436 MBC
[10] = ATCC19436, Zinc (50 μM), read-out: S. uberis ATCC 19436 MBC
[11] = ATCC6538, No Zinc, read-out: S. aureus ATCC 6538 MIC
[12] = ATCC6538, Zinc (50 μM), read-out: S. aureus ATCC 6538 MIC
[13] = ATCC19436, No Zinc, read-out: S. uberis ATCC 19436 MIC
[14] = ATCC19436, Zinc (50 μM), read-out: S. uberis ATCC 19436 MIC
[15] = ATCC10536, No Zinc, read-out: E. coli ATCC 10536 MBC
[16] = ATCC10536, Zinc (50 μM), read-out: E. coli ATCC 10536 MBC
[17] = ATCC 10536 / ATCC 10596, No Zinc, read-out: E. coli ATCC 10536 MIC
[18] = ATCC 10536 / ATCC 10596, Zinc (50 μM), read-out: E. coli ATCC 10536 MIC
[19] = ATCC6538, read-out: S. aureus ATCC 6538 MIC, No Zinc
[20] = ATCC6538, read-out: S. aureus ATCC 6538 MIC, Zinc (50 μM)
[21] = ATCC19436, read-out: S. uberis ATCC 19436 MIC, No Zinc
[22] = ATCC19436, read-out: S. uberis ATCC 19436 MIC, Zinc (50 μM)
[23] = ATCC 10536 / ATCC 10596, read-out: E. coli ATCC 10536 MIC, No Zinc
[24] = ATCC 10536 / ATCC 10596, read-out: E. coli ATCC 10536 MIC, Zinc (50 μM)

| SMILES | MIC [3, 11] [µg/mL] | MIC [3, 12] [µg/mL] | MIC [4, 13] [µg/mL] | MIC [4, 14] [µg/mL] | MIC [6, 17] [µg/mL] | MIC [6, 18] [µg/mL] | also measured |
| --- | --- | --- | --- | --- | --- | --- | --- |
| CC(=O)N/N=C/c1ccc2cccc(NS(=O)(=O)c3ccc(C(F)(F)F)cc3)c2n1 [ZDR120, (E/Z)—N-(2-((2-Acetylhydrazineylidene)methyl)quinolin-8-yl)-4-(trifluoromethyl)benzenesulfonamide] | 16 (≈ 36.7 µM) | 16 (≈ 36.7 µM) | 32 (≈ 73.3 µM) | 0.5 (≈ 1.15 µM) | > 256 | > 256 | MBC [1, 7]: > 256 µg/mL; MBC [1, 8]: > 256 µg/mL; MBC [2, 9]: > 256 µg/mL; MBC [2, 10]: 1 µg/mL (≈ 2.29 µM); MBC [5, 15]: > 256 µg/mL; MBC [5, 16]: > 256 µg/mL |
| O=C(N/N=C/c1ccc2cccc(NS(=O)(=O)c3ccc(C(F)(F)F)cc3)c2n1)C1CCCNC1 (mixture of isomers) [ZDR124, (E/Z)—N-(2-((2-(Piperidine-3-carbonyl)hydrazineylidene)methyl)quinolin-8-yl)-4-(trifluoromethyl)benzenesulfonamide trifluoroacetate] | 16 | 16 | 32 | 16 | 128 | 32 | MBC ([1]; ATCC6538, read-out: S. aureus ATCC 6538 MBC, No Zinc): > 256 µg/mL; MBC ([1]; ATCC6538, read-out: S. aureus ATCC 6538 MBC, Zinc (50 μM)): > 256 µg/mL; MBC ([2]; ATCC19436, read-out: S. uberis ATCC 19436 MBC, No Zinc): 16 µg/mL; MBC ([2]; ATCC19436, read-out: S. uberis ATCC 19436 MBC, Zinc (50 μM)): 16 µg/mL; MBC ([5]; ATCC10536, read-out: E. coli ATCC 10536 MBC, No Zinc): 128 µg/mL; MBC ([5]; ATCC10536, read-out: E. coli ATCC 10536 MBC, Zinc (50 μM)): 32 µg/mL |
| CN(C)Cc1ccc2cccc(NS(=O)(=O)c3ccc(C(F)(F)F)cc3)c2n1.Cl [ZDR022-HCl, N-(2-((Dimethylamino)methyl)quinolin-8-yl)-4-(trifluoromethyl)-benzenesulfonamide HCl] | 64 | 4 | 256 | 0.125 | > 256 | > 256 | MBC [1, 7]: 128 µg/mL; MBC [1, 8]: 256 µg/mL; MBC [2, 9]: > 256 µg/mL; MBC [2, 10]: 0.125 µg/mL; MBC [5, 15]: > 256 µg/mL; MBC [5, 16]: > 256 µg/mL |
| O=S(=O)(Nc1cccc2ccc(CNc3cc(Cl)cc(Cl)c3O)nc12)c1ccc(C(F)(F)F)cc1 [ZDR167, N-(2-(((3,5-Dichloro-2-hydroxyphenyl)amino)methyl)quinolin-8-yl)-4-(trifluoromethyl)benzenesulfonamide] | 2 (≈ 3.69 µM) | 2 (≈ 3.69 µM) | 2 (≈ 3.69 µM) | 0.5 (≈ 0.922 µM) | > 256 | > 256 | MBC [1, 7]: 8 µg/mL (≈ 14.8 µM); MBC [1, 8]: 8 µg/mL (≈ 14.8 µM); MBC [2, 9]: 8 µg/mL (≈ 14.8 µM); MBC [2, 10]: 0.5 µg/mL (≈ 0.922 µM); MBC [5, 15]: > 256 µg/mL; MBC [5, 16]: > 256 µg/mL |
| O=C(N/N=C/c1ccc2cccc(NS(=O)(=O)c3ccc(C(F)(F)F)cc3)c2n1)c1ccncc1 [ZDR122, (E)-N-(2-((2-Isonicotinoylhydrazneylidene)methyl)quinolin-8-yl)-4-(trifluoromethyl)benzenesulfonamide] | 16 (≈ 32 µM) | 16 (≈ 32 µM) | 32 (≈ 64.1 µM) | 2 (≈ 4 µM) | > 256 | > 256 | MBC [1, 7]: 32 µg/mL (≈ 64.1 µM); MBC [1, 8]: 128 µg/mL (≈ 256 µM); MBC [2, 9]: 128 µg/mL (≈ 256 µM); MBC [2, 10]: 32 µg/mL (≈ 64.1 µM); MBC [5, 15]: > 256 µg/mL; MBC [5, 16]: > 256 µg/mL |
| CN(C)CC(=O)NCc1ccc2cccc(NS(=O)(=O)c3ccc(C(F)(F)F)cc3)c2n1 [ZDR205, 2-(Dimethylamino)-N-((8-((4-(trifluoromethyl)phenyl)sulfonamido)quinolin-2-yl)methyl)acetamide] | 128 (≈ 274 µM) | 64 (≈ 137 µM) | 256 (≈ 549 µM) | 0.125 (≈ 0.268 µM) | > 256 | > 256 | – |
| CN(C)Cc1ccc2cccc(NS(=O)(=O)c3cccc(C(N)=O)c3)c2n1 [ZDR331, 3-(N-(2-((Dimethylamino)methyl)quinolin-8-yl)sulfamoyl)benzamide] | > 256 | > 256 | > 256 | 16 (≈ 41.6 µM) | > 256 | > 256 | – |
| NC(=O)CNCc1ccc2cccc(NS(=O)(=O)c3ccc(C(F)(F)F)cc3)c2n1 [ZDR266, 2-(((8-((4-(Trifluoromethyl)phenyl)sulfonamido)quinolin-2-yl)methyl)amino)acetamide trifluoroacetate] | – | – | – | – | – | – | MIC [3, 19]: 64 µg/mL; MIC [3, 20]: 32 µg/mL; MIC [4, 21]: 16 µg/mL; MIC [4, 22]: 16 µg/mL; MIC [6, 23]: 128 µg/mL; MIC [6, 24]: 256 µg/mL |
| O=S(=O)(Nc1cccc2ccc(CN3CCSCC3)nc12)c1ccc(C(F)(F)F)cc1 [ZDR088, N-(2-(Thiomorpholinomethyl)quinolin-8-yl)-4-(trifluoromethyl)benzenesulfonamide] | > 256 | > 256 | > 256 | 0.0625 (≈ 0.134 µM) | > 256 | > 256 | – |
| CN(C)Cc1ccc2cccc(NS(=O)(=O)c3cccc(C(F)(F)F)c3)c2n1 [ZDR074, N-(2-((Dimethylamino)methyl)quinolin-8-yl)-3-(trifluoromethyl)benzenesulfonamide] | > 256 | > 256 | > 256 | 0.0625 (≈ 0.153 µM) | 256 (≈ 625 µM) | 256 (≈ 625 µM) | – |
| CCCN(CCC)Cc1ccc2cccc(NS(=O)(=O)c3ccc(C(F)(F)F)cc3)c2n1 [ZDR409, N-(2-((Dipropylamino)methyl)quinolin-8-yl)-4-(trifluoromethyl)benzenesulfonamide] | 64 (≈ 137 µM) | 256 (≈ 550 µM) | 256 (≈ 550 µM) | 0.125 (≈ 0.269 µM) | > 256 | > 256 | – |
| CC(C)(C)OC(=O)N=C(NCCNCc1ccc2cccc(NS(=O)(=O)c3ccc(C(F)(F)F)cc3)c2n1)NC(=O)OC(C)(C)C [ZDR139, N-(2-(((N,N′-Bis-Boc-2-Guanidinoethyl)amino)methyl)quinolin-8-yl)-4-(trifluoromethyl)benzenesulfonamide] | 256 (≈ 384 µM) | 256 (≈ 384 µM) | 64 (≈ 96 µM) | 0.125 (≈ 0.187 µM) | > 256 | > 256 | – |
| O=C(CNCc1ccc2cccc(NS(=O)(=O)c3ccc(C(F)(F)F)cc3)c2n1)NC(CO)(CO)CO [ZDR265, N-(1,3-Dihydroxy-2-(hydroxymethyl)propan-2-yl)-2-(((8-((4-(trifluoromethyl)phenyl)sulfonamido)quinolin-2-yl)methyl)amino)acetamide trifluoroacetate] | – | – | – | – | – | – | MIC [3, 19]: 64 µg/mL; MIC [3, 20]: 64 µg/mL; MIC [4, 21]: 128 µg/mL; MIC [4, 22]: 256 µg/mL; MIC [6, 23]: 256 µg/mL; MIC [6, 24]: 256 µg/mL |
| CN(C)Cc1ccc2cccc(NS(=O)(=O)c3ccc(O)cc3)c2n1 [ZDR164, N-(2-((Dimethylamino)methyl)quinolin-8-yl)-4-hydroxybenzenesulfonamide] | > 256 | > 256 | > 256 | > 256 | > 256 | > 256 | – |
